Reference: US8309552B2, “Immunomodulating heterocyclic compounds” (Medigene AG, priority 2003, dated 2012)
Read-outs that look alike come from different tables or passages of the source.

Target: T1, CD80-CD28 interaction (Homo sapiens, UniProt P33681)
T1 sequence (P33681 35-242 limits assumed): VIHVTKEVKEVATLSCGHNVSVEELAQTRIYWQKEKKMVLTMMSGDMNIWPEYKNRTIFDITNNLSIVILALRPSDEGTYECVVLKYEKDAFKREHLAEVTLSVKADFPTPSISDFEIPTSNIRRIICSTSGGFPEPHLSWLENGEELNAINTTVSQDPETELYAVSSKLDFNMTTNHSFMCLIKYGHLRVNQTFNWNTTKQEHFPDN
Assay: Homogenous Time Resolved Fluorescence (HTRF) assay, cell free
Assay type: binding
Conditions: 4 hours at room temperature, read-out: Activity (EC50 in the HTRF assay)
How it was run: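 In pH7.8 Tris-HCl/NaCl buffer with 0.1% BSA, a 100 μM-1.7 nM compound series was incubated for 4 h at room temperature with CD28 and CD80 fusions carrying europium and APC via linker antibodies. Time-resolved signals at 665 and 615 nm were read after 340 nm excitation; a C215 Fab swap defined background. EC50 given as banded classes.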

[1] = cell-free HTRF, compound concentration series 100 μM-1.7 nM
[2] = cell free HTRF assay, concentration series 100 μM-1.7 nM

Structure (SMILES) | EC50 [1] [µM] | EC50 [2] [µM]
CCCCN(CCCC)CCNC(=O)Nc1ccc(-n2[nH]c3c(nnc4ccccc43)c2=O)cc1 [Example 206] | < 1 | –
CCCCC(C)NC(=O)Nc1ccc(-n2[nH]c3c(nnc4ccccc43)c2=O)cc1 (stereo not shown) [Example 207] | 1 to 10 | –
O=C(NCCOc1ccccc1)Nc1ccc(-n2[nH]c3c(nnc4ccccc43)c2=O)cc1 [Example 208] | 1 to 10 | –
C=C(C)C(=O)OCCNC(=O)Nc1ccc(-n2[nH]c3c(nnc4ccccc43)c2=O)cc1 [Example 209] | > 10 | –
COCC(C)NC(=O)Nc1ccc(-n2[nH]c3c(nnc4ccccc43)c2=O)cc1 (stereo not shown) [Example 210] | < 1 | –
O=C(Nc1ccc(-n2[nH]c3c(nnc4ccccc43)c2=O)cc1)NC1CCCCC1OCc1ccccc1 (stereo not shown) [Example 212] | > 10 | –
CCCCOC(=O)CNC(=O)Nc1ccc(-n2[nH]c3c(nnc4ccccc43)c2=O)cc1 [Example 215] | > 10 | –
CCCCCOC(=O)CNC(=O)Nc1ccc(-n2[nH]c3c(nnc4ccccc43)c2=O)cc1 [Example 216] | > 10 | –
O=C(NCCCCCNC(=O)OCc1ccccc1)Nc1ccc(-n2[nH]c3c(nnc4ccccc43)c2=O)cc1 [Example 219] | 1 to 10 | –
CC(=O)NCCCCNC(=O)Nc1ccc(-n2[nH]c3c(nnc4ccccc43)c2=O)cc1 [Example 222] | – | < 1
CC(C)(C)OC(=O)CCNC(=O)Nc1ccc(-n2[nH]c3c(nnc4ccccc43)c2=O)cc1 [Example 223] | – | 1 to 10
O=C(Nc1ccc(-n2[nH]c3c(nnc4ccccc43)c2=O)cc1)NC1Cc2ccccc2C1 [Example 226] | – | > 10
O=C(NCCSc1cc(C(F)(F)F)nc2ccccc12)Nc1ccc(-n2[nH]c3c(nnc4ccccc43)c2=O)cc1 [Example 227] | – | > 10
O=C(NCCCCN1CCCC1)Nc1ccc(-n2[nH]c3c(nnc4ccccc43)c2=O)cc1 [Example 228] | – | < 1
O=C(NCCCN1CCCC1)Nc1ccc(-n2[nH]c3c(nnc4ccccc43)c2=O)cc1 [Example 229] | – | < 1
COc1ccc(CNC(=O)c2ccc(-n3[nH]c4c(nnc5ccccc54)c3=O)cc2)c(OC)c1 [Example 236] | – | > 10
CN(C)c1ccc(CNC(=O)c2ccc(-n3[nH]c4c(nnc5ccccc54)c3=O)cc2)cc1 [Example 237] | – | < 1
O=C(NCC1CCCO1)c1ccc(-n2[nH]c3c(nnc4ccccc43)c2=O)cc1 (stereo not shown) [Example 238] | – | 1 to 10
O=C(NC1CCC1)c1ccc(-n2[nH]c3c(nnc4ccccc43)c2=O)cc1 [Example 239] | – | 1 to 10
COc1ccc(CNC(=O)c2ccc(-n3[nH]c4c(nnc5ccccc54)c3=O)cc2)cc1 [Example 240] | – | < 1
O=C(NCc1ccco1)c1ccc(-n2[nH]c3c(nnc4ccccc43)c2=O)cc1 [Example 242] | – | < 1
CC(C)NC(=O)c1ccc(-n2[nH]c3c(nnc4ccccc43)c2=O)cc1 [Example 243] | – | < 1
O=C(NCC1CCCCC1)c1ccc(-n2[nH]c3c(nnc4ccccc43)c2=O)cc1 [Example 244] | – | 1 to 10

Structure (SMILES) | EC50 [1] [µM] | EC50 [2] [µM]
COCCCNC(=O)c1ccc(-n2[nH]c3c(nnc4ccccc43)c2=O)cc1 [Example 247] | – | < 1
O=C(NCc1cccc(F)c1)c1ccc(-n2[nH]c3c(nnc4ccccc43)c2=O)cc1 [Example 250] | – | < 1
O=C(NC1CCc2ccccc21)c1ccc(-n2[nH]c3c(nnc4ccccc43)c2=O)cc1 (stereo not shown) [Example 252] | – | > 10
O=C(NCCSCc1c(F)cccc1Cl)c1ccc(-n2[nH]c3c(nnc4ccccc43)c2=O)cc1 [Example 254] | – | > 10
O=C(NCCc1cccs1)c1ccc(-n2[nH]c3c(nnc4ccccc43)c2=O)cc1 [Example 255] | – | > 10
CCC(C)NC(=O)c1ccc(-n2[nH]c3c(nnc4ccccc43)c2=O)cc1 (stereo not shown) [Example 258] | – | 1 to 10
O=C(NCCN1CCCC1)c1ccc(-n2[nH]c3c(nnc4ccccc43)c2=O)cc1 [Example 259] | – | < 1
CC(NC(=O)Nc1ccc(-n2[nH]c3c(nnc4ccccc43)c2=O)cc1)C1CCCCC1 (stereo not shown) [Example 261] | – | > 10
CC(C)C(C)NC(=O)Nc1ccc(-n2[nH]c3c(nnc4ccccc43)c2=O)cc1 (stereo not shown) [Example 263] | – | 1 to 10
CN(CCNC(=O)Nc1ccc(-n2[nH]c3c(nnc4ccccc43)c2=O)cc1)C(=O)OC(C)(C)C [Example 265] | – | > 10
O=C(NC1CONC1=O)c1ccc(-n2[nH]c3c(nnc4ccccc43)c2=O)cc1 (stereo not shown) [Example 267] | – | 1 to 10
O=C(NCCc1c[nH]c2ccccc12)c1ccc(-n2[nH]c3c(nnc4ccccc43)c2=O)cc1 [Example 268] | – | 1 to 10
CCCNCCNC(=O)c1ccc(-n2[nH]c3c(nnc4ccccc43)c2=O)cc1 [Example 269] | – | > 10
O=C(NCCc1ccccc1)c1ccc(-n2[nH]c3c(nnc4ccccc43)c2=O)cc1 [Example 270] | – | > 10
NCCCCCCNC(=O)c1ccc(-n2[nH]c3c(nnc4ccccc43)c2=O)cc1 [Example 271] | – | < 1
O=C(NCCC1=CCCCC1)c1ccc(-n2[nH]c3c(nnc4ccccc43)c2=O)cc1 [Example 272] | – | > 10
CCCCCCCCCCCCOCCCNC(=O)c1ccc(-n2[nH]c3c(nnc4ccccc43)c2=O)cc1 [Example 273] | – | > 10
CSCCCNC(=O)c1ccc(-n2[nH]c3c(nnc4ccccc43)c2=O)cc1 [Example 274] | – | < 1
CCC(COCc1ccccc1)NC(=O)c1ccc(-n2[nH]c3c(nnc4ccccc43)c2=O)cc1 (stereo not shown) [Example 276] | – | 1 to 10
O=C(NC1CN2CCC1CC2)c1ccc(-n2[nH]c3c(nnc4ccccc43)c2=O)cc1 (stereo not shown) [Example 278] | – | < 1
CCCCNCCNC(=O)c1ccc(-n2[nH]c3c(nnc4ccccc43)c2=O)cc1 [Example 279] | – | < 1
CCN(CC)CCNCCNC(=O)c1ccc(-n2[nH]c3c(nnc4ccccc43)c2=O)cc1 [Example 280] | – | < 1
O=C(NCc1cccc(F)c1)Nc1ccc(-n2[nH]c3c(nnc4ccccc43)c2=O)cc1 [Example 284] | – | > 10

Results, then the compound that gave them:

EC50 [1] [µM] | EC50 [2] [µM] | Structure (SMILES)
> 10 | – | CC(C)(C)OC(=O)CNC(=O)Nc1ccc(-n2[nH]c3c(nnc4ccccc43)c2=O)cc1 [Example 205]
> 10 | – | O=C(Nc1ccc(-n2[nH]c3c(nnc4ccccc43)c2=O)cc1)NC1CCCC1OCc1ccccc1 (stereo not shown) [Example 211]
1 to 10 | – | CC(C)(C)OC(=O)NCCCNC(=O)Nc1ccc(-n2[nH]c3c(nnc4ccccc43)c2=O)cc1 [Example 213]
< 1 | – | O=C(Nc1ccc(-n2[nH]c3c(nnc4ccccc43)c2=O)cc1)NC1CCN(Cc2ccccc2)C1 (stereo not shown) [Example 214]
1 to 10 | – | O=C(NCCc1cccnc1)Nc1ccc(-n2[nH]c3c(nnc4ccccc43)c2=O)cc1 [Example 217]
> 10 | – | CC(C)CCC(C)NC(=O)Nc1ccc(-n2[nH]c3c(nnc4ccccc43)c2=O)cc1 (stereo not shown) [Example 218]
> 10 | – | CC(C)(C)OC(=O)NCCCCNC(=O)Nc1ccc(-n2[nH]c3c(nnc4ccccc43)c2=O)cc1 [Example 220]
– | > 10 | CCC(CC)CNC(=O)Nc1ccc(-n2[nH]c3c(nnc4ccccc43)c2=O)cc1 [Example 221]
– | < 1 | O=C(NCCN1CCC(Cc2ccccc2)CC1)Nc1ccc(-n2[nH]c3c(nnc4ccccc43)c2=O)cc1 [Example 224]
– | > 10 | COc1ccc(OCCNC(=O)Nc2ccc(-n3[nH]c4c(nnc5ccccc54)c3=O)cc2)cc1 [Example 225]
– | < 1 | CN(C)CCCNC(=O)c1ccc(-n2[nH]c3c(nnc4c(F)cccc43)c2=O)cc1 [Example 232]
– | < 1 | CN1C(C)(C)CC(NC(=O)c2ccc(-n3[nH]c4c(nnc5c(F)cccc54)c3=O)cc2)CC1(C)C [Example 234]
– | 1 to 10 | CCCCNC(=O)c1ccc(-n2[nH]c3c(nnc4ccccc43)c2=O)cc1 [Example 241]
– | 1 to 10 | CCCCCCCNC(=O)c1ccc(-n2[nH]c3c(nnc4ccccc43)c2=O)cc1 [Example 245]
– | < 1 | C=CCNC(=O)c1ccc(-n2[nH]c3c(nnc4ccccc43)c2=O)cc1 [Example 246]
– | > 10 | O=C(NCc1cccc(C(F)(F)F)c1)c1ccc(-n2[nH]c3c(nnc4ccccc43)c2=O)cc1 [Example 248]
– | > 10 | CCCCCNC(=O)c1ccc(-n2[nH]c3c(nnc4ccccc43)c2=O)cc1 [Example 251]
– | 1 to 10 | O=C(NCC1CCNCC1)c1ccc(-n2[nH]c3c(nnc4ccccc43)c2=O)cc1 [Example 256]
– | 1 to 10 | CC(C)CNC(=O)c1ccc(-n2[nH]c3c(nnc4ccccc43)c2=O)cc1 [Example 260]
– | > 10 | CC(NC(=O)Nc1ccc(-n2[nH]c3c(nnc4ccccc43)c2=O)cc1)C(C)(C)C (stereo not shown) [Example 262]
– | > 10 | CC(C)(C)OC(=O)N1CCC(CNC(=O)Nc2ccc(-n3[nH]c4c(nnc5ccccc54)c3=O)cc2)CC1 [Example 264]
– | < 1 | O=C(NCCCCNC(=O)c1ccc(-n2[nH]c3c(nnc4ccccc43)c2=O)cc1)OCc1ccccc1 [Example 266]
– | 1 to 10 | CCOC(=O)C1CCCC1NC(=O)c1ccc(-n2[nH]c3c(nnc4ccccc43)c2=O)cc1 (stereo not shown) [Example 275]
– | 1 to 10 | O=C(NC1CCOC1=O)c1ccc(-n2[nH]c3c(nnc4ccccc43)c2=O)cc1 (stereo not shown) [Example 277]
– | < 1 | O=C(NCCNCc1ccccc1)c1ccc(-n2[nH]c3c(nnc4ccccc43)c2=O)cc1 [Example 281]
– | < 1 | CCNC(=O)Nc1ccc(-n2[nH]c3c(nnc4ccccc43)c2=O)cc1 [Example 282]
– | > 10 | CC(C)=CCC/C(C)=C/CNC(=O)Nc1ccc(-n2[nH]c3c(nnc4ccccc43)c2=O)cc1 [Example 283]
